Results: PubChem BioAssay AID434954 (Broad Institute, 2010)
Calls of active or inactive are those of the source.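 Rule for the calls: active = IC50 at or below a set limit above the highest tested dose; inconclusive = flat curve with 30 to 70% inhibition, or poor fit; inactive = the rest.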

Each compound was assayed against Glycogen synthase kinase-3 beta (Homo sapiens) (UniProt P49841) (assay: GSK3beta kinase inhibitor potency, dose response, biochemical, luminescence, cell-free homogeneous, retest (AID 434954)). Conditions: recombinant GSK3beta, ADP-Glo luminescence, 60 min.
Glycogen synthase kinase-3 beta (Homo sapiens), sequence (P49841 whole entry, looked up): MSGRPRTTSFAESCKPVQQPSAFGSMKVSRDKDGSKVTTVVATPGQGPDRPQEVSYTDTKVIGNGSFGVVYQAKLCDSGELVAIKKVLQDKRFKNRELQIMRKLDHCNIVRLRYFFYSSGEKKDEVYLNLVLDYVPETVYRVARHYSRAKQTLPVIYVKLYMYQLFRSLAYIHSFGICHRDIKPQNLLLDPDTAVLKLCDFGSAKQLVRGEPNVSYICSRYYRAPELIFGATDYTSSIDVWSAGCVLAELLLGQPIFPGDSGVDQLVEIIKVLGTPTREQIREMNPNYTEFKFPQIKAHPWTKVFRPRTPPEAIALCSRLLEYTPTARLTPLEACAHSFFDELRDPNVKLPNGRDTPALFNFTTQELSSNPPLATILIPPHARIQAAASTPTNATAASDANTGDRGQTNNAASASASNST

Structure (SMILES)	IC50
Cc1[nH]nc2c1C(c1ccc(O)cc1)C1=C(CC(C)(C)CC1=O)N2 (stereo unspecified)	2.06 µM
N#CC(C#N)=C1NC(N)=C(C#N)C(c2ccccc2)=C1C#N	19.2 µM
Nc1ncnc2c1ncn2C1OC(COP(=O)(O)O)C(O)C1O (stereo unspecified)	> 30 µM (inactive)
Oc1[nH]c2ccccc2c1C=Nc1ccc2c(c1)OCO2	11.4 µM
Cc1ccc(C2C3=C(CC(C)(C)CC3=O)Nc3[nH]c(=S)[nH]c(=O)c32)cc1 (stereo unspecified)	> 30 µM (inactive)
COc1ccc(C2CC(=O)C3=C(C2)Nc2ncnn2C3c2ccccc2C)cc1 (stereo unspecified)	> 30 µM (inactive)
Cc1cc(-c2[nH]nc3c2C(c2cccc(O)c2)C(C#N)=C(N)O3)c(C)s1 (stereo unspecified)	25.4 µM
N#Cc1c(N)nc2c3c(sc(=N)c2c1N)NC(=O)CC3c1ccccc1 (stereo unspecified)	> 30 µM (inactive)
Cc1nn(-c2ccccn2)c2c1C(c1ccncc1)C1=C(CC(C)(C)CC1=O)N2 (stereo unspecified)	> 30 µM (inactive)
CC1=C(C(N)=O)C(c2sccc2C)n2nnnc2N1 (stereo unspecified)	> 30 µM (inactive)
O/N=C/c1cn(-c2ccccc2)nc1-c1ccccc1	26 µM
COc1cc(C2C3=C(CC(C)(C)CC3=O)Nc3c2c(=O)[nH]c(=O)n3Cc2ccccc2)ccc1O (stereo unspecified)	> 30 µM (inactive)
O=C1CCCC2=C1C(c1cccs1)n1ncnc1N2 (stereo unspecified)	> 30 µM (inactive)
O=C1CC(SC(=Nc2ccccc2)Nc2ccccc2)C(=O)N1c1cccc2ccccc12 (stereo unspecified)	> 30 µM (inactive)
O=C(O)c1cc(N/N=C/c2ccc(-c3ccc(F)cc3)o2)ccc1Cl	> 30 µM (inactive)
O=C(O)c1ccccc1N/N=C\c1ccnc2ccccc12	> 30 µM (inactive)
CCc1ccccc1N1C(=O)CC(N2CCc3ccccc32)C1=O (stereo unspecified)	> 30 µM (inactive)
O=C(O)CCn1cc(/C=N/O)c(-c2cccc([N+](=O)[O-])c2)n1	7.38 µM
C=CCOc1ccc(/C=N/Nc2ccccn2)cc1OC	> 30 µM (inactive)
CC1=C(C(=O)OCC2CCCO2)C(c2ccc(O)cc2)NC(=O)N1 (stereo unspecified)	> 30 µM (inactive)
Cc1c(C=Nc2ccc(S(=O)(=O)CCO)cc2)c(O)[nH]c(=O)c1C#N	> 30 µM (inactive)
CCCCCCn1c(O)c(C=NCCCn2ccnc2)c(=O)[nH]c1=O	14.3 µM
CCOc1cc(C2Nc3ccccc3NC3=C2C(=O)CC(C)(C)C3)ccc1O (stereo unspecified)	> 30 µM (inactive)
Oc1ccc(/C=N/Nc2ncc(Br)cn2)c(O)c1	12.3 µM

Structure (SMILES)	IC50
Cc1ccccc1/C=N/Nc1ncnc2nc[nH]c12	17.1 µM
CC1=C(C#N)C(c2ccc(O)cc2)C2=C(CC(C)(C)CC2=O)N1 (stereo unspecified)	> 30 µM (inactive)
Cc1[nH]nc2c1C(c1ccc(N(C)C)cc1)C1=C(CC(C)(C)CC1=O)N2 (stereo unspecified)	28 µM
COC(=O)c1ccc(N2C(=O)CC(N3CCN(C(=O)c4ccco4)CC3)C2=O)cc1 (stereo unspecified)	> 30 µM (inactive)
COc1cccc(C2C3=C(CCCC3=O)Nc3[nH]n(-c4ccccc4)c(=O)c32)c1 (stereo unspecified)	> 30 µM (inactive)
CCN(CC)S(=O)(=O)c1cccc(N2CC(O)=C(c3ccccc3)C2=N)c1	> 30 µM (inactive)
CC1=C(C(=O)OCc2ccccc2)C(c2cccnc2)n2ncnc2N1 (stereo unspecified)	28 µM
CSc1nc2c(c(=O)[nH]1)C(c1ccccc1)C1=C(CC(C)(C)CC1=O)N2 (stereo unspecified)	> 30 µM (inactive)
CCOc1cc(C2C(C(=O)N3CCCCC3)=C(C)NC3=C2C(=O)CC(C)(C)C3)ccc1O (stereo unspecified)	> 30 µM (inactive)
COc1ccc(C2C3=C(CC(C)(C)CC3=O)Nc3n[nH]c(C)c32)cc1 (stereo unspecified)	28.3 µM
O=C(O)c1cccc(-c2ccc(/C=N/Nc3ccc([N+](=O)[O-])cc3)o2)c1	> 30 µM (inactive)
CCOC(=O)C1=C(C)Nc2ncnn2C1c1ccccc1F (stereo unspecified)	> 30 µM (inactive)
CCc1ccc(C2NC(=S)NC3=C2C(=O)CC(C)(C)C3)cc1 (stereo unspecified)	> 30 µM (inactive)
Cc1noc2c1C(c1ccc(N(C)C)cc1)C1=C(CC(C)(C)CC1=O)N2 (stereo unspecified)	> 30 µM (inactive)
Nc1nc(F)nc2c1ncn2[C@@H]1O[C@H](CO)[C@@H](O)[C@@H]1O	> 30 µM (inactive)
CC1=C(C(=O)OCC2CCCO2)C(c2ccsc2)C2=C(CC(C)(C)CC2=O)N1 (stereo unspecified)	> 30 µM (inactive)
CC1=C(C(=O)N2CCCCC2)C(c2cccs2)C2=C(CCCC2=O)N1 (stereo unspecified)	> 30 µM (inactive)
COc1ccc(OC)c(C2Nc3ccccc3NC3=C2C(=O)CC(C)(C)C3)c1 (stereo unspecified)	> 30 µM (inactive)
Cc1ccc(C2C3=C(CC(C)(C)CC3=O)Nc3n[nH]c(C)c32)cc1 (stereo unspecified)	9.26 µM
Nc1ncnc2c1ncn2[C@@H]1O[C@H](COP(=O)(O)O)[C@@H](O)[C@H]1O	> 30 µM (inactive)
O=C(O)c1cc(-c2ccc(/C=N/Nc3ccc(Cl)cc3)o2)ccc1Cl	> 30 µM (inactive)
O=C(Nc1cccc2c1C(=O)NC2=O)c1cccc(N2C(=O)CCC2=O)c1	> 30 µM (inactive)
Cc1[nH]nc2c1C(c1ccc(F)cc1)C1=C(CC(C)(C)CC1=O)N2 (stereo unspecified)	3.93 µM
Cc1c(C(=O)O)cccc1-n1c(C)cc(/C=N/Nc2ccc([N+](=O)[O-])cn2)c1C	21.3 µM

Structure (SMILES)	IC50
COc1cccc(/C=N/Nc2cc(Cl)nc(C)n2)c1O	> 30 µM (inactive)
CCOC(=O)C1=C(C)Nc2ncnn2C1/C=C/c1ccccc1 (stereo unspecified)	> 30 µM (inactive)
CCCCOC(=O)C1=C(C)Nc2ncnn2C1c1cccc(OC)c1OC (stereo unspecified)	4.25 µM
COc1cccc(C2C(C#N)=C(C)NC3=C2C(=O)CC(C)(C)C3)c1 (stereo unspecified)	> 30 µM (inactive)
COc1ccc(-c2c(C)n([O-])c(C)c(C)[n+]2=O)cc1	> 30 µM (inactive)
O=c1[nH]c(=O)n(Cc2ccc(F)cc2)c(O)c1C=NCCN1CCCCC1	> 30 µM (inactive)
O=C(O)c1ccc(-c2ccc(/C=N/Nc3ccc([N+](=O)[O-])cc3)o2)cc1	> 30 µM (inactive)
COc1ccc(-c2nn(-c3ccccc3)cc2/C=N/O)cc1OC	3.99 µM
COc1ccc(-c2nn(-c3ccccc3)cc2/C=N/Nc2ccccn2)cc1	> 30 µM (inactive)
O=C1CCCC2=C1C(c1cccs1)Nc1ccccc1N2 (stereo unspecified)	> 30 µM (inactive)
Cc1ccc(C2C3=C(CC(C)(C)CC3=O)Nc3onc(C)c32)cc1 (stereo unspecified)	> 30 µM (inactive)
COc1ccc(COC(=O)C2=C(C)NC(=O)NC2c2ccc(O)c(OC)c2)cc1 (stereo unspecified)	> 30 µM (inactive)
O=C(O)c1ccc(/C=N/Nc2ccc(C(F)(F)F)cn2)cc1	20.4 µM
Cc1cccc(N=Nc2c(C)c(C#N)c(O)[nH]c2=O)c1	0.775 µM
Cc1ccccc1CSc1nc2n(n1)C(c1cccs1)C1=C(CCCC1=O)N2 (stereo unspecified)	> 30 µM (inactive)
O=[N+]([O-])c1ccc2[nH]c(O)c(N=NC3CS(=O)(=O)CC3O)c2c1 (stereo unspecified)	23 µM
COc1ccc(-c2nn(-c3ccccc3)cc2/C=N/Nc2ccc(Cl)c(C(=O)O)c2)cc1OC	> 30 µM (inactive)
CCCCOC(=O)C1=C(C)Nc2ncnn2C1c1cc(OC)c(OC)cc1OC (stereo unspecified)	> 30 µM (inactive)
CCOC(=O)C1=C(C)Nc2ncnn2C1c1ccc(N(C)C)cc1 (stereo unspecified)	> 30 µM (inactive)
COc1ccc(-c2nn(-c3ccccc3)cc2/C=N/N2C(=O)CSC2=S)cc1	> 30 µM (inactive)
CN(C)C=NC(=O)/C(C#N)=C1\CCc2ccccc2N1	20.1 µM
COc1cc(C2C(C#N)=C(C)NC3=C2C(=O)CC(C)(C)C3)ccc1O (stereo unspecified)	> 30 µM (inactive)
CCOC(=O)C1=C(C(F)(F)F)Nc2ncnn2C1c1cc(OC)ccc1OC (stereo unspecified)	> 30 µM (inactive)
